Measured values from patent US8821568B2, “Implant modified with non-hydroxylated vitamin D precursors” (Numat Biomedical S.L., priority 2008, dated 2014).

Legend:
[1] = test system: MC3T3-E1 cells; assay: ELISA of 25-D3 and 1,25-D3 released to the culture media, plastic wells; type: cell-based, mouse; settings: TCP, 48 hours, 2×10^−3 to 20 nmols
Method: To test the effect of the different treatments onto the plastic wells, 96-well plates made of polystyrene were used and the treatments with 7-DHC performed directly onto them. Cells grown onto untreated TCP were added as a control for all the experiments. Cells were seeded at a density of 30,000 cells/cm^2 and they were maintained in α-MEM supplemented with 10% FCS and antibiotics. Culture media was collected after 48 hours, to test cytotoxicity and the production of the hydroxylated forms of vitamin D. Cells were harvested after 2 days of culture using Trizol reagent (Roche Diagnostics, Mannheim, Germany), to analyse early gene expression response of several osteoblast differentiation markers and enzymes involved in vitamin D synthesis using real-time RT-PCR.
25-D3 and 1,25-D3 released to the culture media after two days of treatment were analyzed by enzyme-linked immunosorbent assay (ELISA). Aliquots from the culture media were centrifuged at 1800 rpm for 5 minutes at 4° C. and supernatants were used for 25-D3 and 1,25-D3 determination following instructions described by the manufacturer (Immunodiagnostic Systems Ltd, Boldon, Tyne and Wear, UK).

[2] = test system: MC3T3-E1 cells; assay: LDH activity (cell viability) on coated titanium implants; type: cell-based, mouse
Method: To treat implant surfaces, 10 μl of each dilution treatment were left on the surfaces and were allowed to air-dry for 15 min in the sterile flow bench. For UV-irradiation, a UV lamp of 302 nm was used at an intensity of irradiation ca. 6 mW/cm^2 during several irradiation times.
To test the effect of the surface modification, 96-well plates were used. Ti disks were placed into the wells and treatments and UV-activation were performed over there. Cells grown onto untreated polystyrene tissue culture plastic (TCP) were added as a control for all the experiments. Cells were seeded at a density of 30,000 cells/cm^2 and they were maintained in α-MEM supplemented with 10% FCS and antibiotics. […] Cells were harvested after two days of culture using Trizol reagent (Roche Diagnostics, Mannheim, Germany), to analyze gene expression of several osteoblast differentiation markers and enzymes involved in vitamin D synthesis using real-time RT-PCR. […]
Lactate dehydrogenase (LDH) activity in the culture media was used as an index of cell death. LDH activity was determined spectrophotometrically after 30 min incubation at 25° C. of 50 μl of culture and 50 μl of the reaction mixture by measuring the oxidation of NADH at 490 nm in the presence of piruvate following the manufacturer's protocol (Cytotoxicity Detection Kit (LDH), Roche Diagnostics, Mannheim, Germany). […]

CC(C)CCC[C@@H](C)[C@H]1CC[C@H]2C3=CC=C4C[C@@H](O)CC[C@]4(C)[C@H]3CC[C@]12C [7-DHC, 7-dehydrocholesterol]
Production of 25-D3 and 1,25-D3 (dose-response) ([1]; activated by UV irradiation): a dose-response was found
Production of 25-D3 and 1,25-D3 (dose-response) ([1]; not UV-treated): no dose-response was detected
Cytotoxic effect ([2]; Ti implants treated and UV-irradiated): No cytotoxic effect
Cell viability (LDH activity) ([2]; Ti implants, 0.2 nmols, 24 h, UV-activated 5 to 10 minutes, compared to negative control (TCP)): protective effects
